The nature of the series: Solubility of dexmedetomidine in adhesives and solubility enhancers. The format is physicochemical.

Regarding `Cc1cccc([C@H](C)c2cnc[nH]2)c1C` [dexmedetomidine, Dexmedetomidine], the solubility of dexmedetomidine entry was “less than 2%” (in Duro-Tak 87-2979 (acid/hydroxyl functionalized acrylate adhesive)); 10-15% (in Duro-Tak 387/87-2353 (acid functionalized acrylate adhesive)); “less than 1%” (in hydroxyl functionalized acrylate polymer); 5 to 10% (in lauryl lactate); around 60% (in levulinic acid); around 40% (in oleic acid). Further, the solubility of dexmedetomidine (in propylene glycolmonolaurate) lay within 5 to 10%.
